Test results published in US11141407B2, “Pharmaceutical composition for preventing or treating aids comprising rhodanine derivative” (AVIXGEN INC., priority 2018, dated 2021).
Where two headings read alike, the source gives them in different places.

Legend:
Format in all cases: cell-based
[1] = system: NL43-derived HIV-1 carrying the GFP gene; conditions: p24 ELISA after 4 days; for Actually measured virus inhibitory value (%): alone, MT4 cells
Procedure: MT4 cells (a type of T cell line) were cultured in RPMI supplemented with 10% FBS and 10% antibiotics (penicillin and streptomycin). The cells were subcultured every 2 days in a humidified incubator at 37° C. and 5% CO2 for maintenance.
All viruses used for infection are NL43-derived HIV-1 carrying the GFP gene. The viral gene is recombined with the GFP gene, so that an expression rate of GFP may represent a level of viral infection. In order to identify antiviral efficacy, MT4 cells, which are a human-derived T cell line, were used. The MT4 cells were inoculated into 48-well plates at a density of 1×10^5 cells/well and infected with HIV-1 in an amount corresponding to 0.5 ng of HIV-1 p24. Treatment with mixtures to be tested for efficacy was performed simultaneously with the infection. The mixtures were prepared by mixing AVI-CO-004 with AZT, 3TC, Tenofovir, or FTC, respectively. […] Virus supernatant was collected and cell residues were removed. Then, analysis was performed. The viral production was quantified by p24 ELISA assay.
Specifically, 100,000 MT4 cells were respectively inoculated into 48-well plates and infected with HIV-1 in an amount corresponding to 0.5 ng of HIV-1 p24. Treatment with AVI-CO-004 was performed at indicated concentrations. After 4 days, an amount of viruses produced was quantified by p24 ELISA assay.
In the present experiment, antiviral efficacy of a mixture of AVI-CO-004 and AZT was identified. First, 100,000 MT4 cells were respectively inoculated into 48-well plates and infected with HIV-1 in an amount corresponding to 0.5 ng of HIV-1 p24. Treatment with a mixture of AVI-CO-004 and AZT was performed at indicated concentrations. After 4 days, an amount of viruses produced was quantified by p24 ELISA assay.
In the present experiment, antiviral efficacy of a mixture of AVI-CO-004 and 3TC was identified. First, 100,000 MT4 cells were respectively inoculated into 48-well plates and infected with HIV-1 in an amount corresponding to 0.5 ng of HIV-1 p24. Treatment with a mixture of AVI-CO-004 and 3TC was performed at indicated concentrations. After 4 days, an amount of viruses produced was quantified by p24 ELISA assay.
In the present experiment, antiviral efficacy of a mixture of AVI-CO-004 and TFV was identified. First, 100,000 MT4 cells were respectively inoculated into 48-well plates and infected with HIV-1 in an amount corresponding to 0.5 ng of HIV-1 p24. Treatment with a mixture of AVI-CO-004 and TFV was performed at indicated concentrations. After 4 days, an amount of viruses produced was quantified by p24 ELISA assay.
In the present experiment, antiviral efficacy of a mixture of AVI-CO-004 and FTC was identified. First, 100,000 MT4 cells were respectively inoculated into 48-well plates and infected with HIV-1 in an amount corresponding to 0.5 ng of HIV-1 p24. Treatment with a mixture of AVI-CO-004 and FTC was performed at indicated concentrations. After 4 days, an amount of viruses produced was quantified by p24 ELISA assay.

[2] = system: NL43-derived HIV-1 carrying the GFP gene; conditions: alone, MT4 cells, p24 ELISA 3 days after infection
Procedure: Specifically, MT4 cells were inoculated at 1×10^5 cells into 48-well plates and infected with HIV-1 in an amount corresponding to 1 ng of p24. All viruses used for the infection are NL43-derived HIV-1 carrying the GFP gene. Together with the infection, the cells were treated with 0.5 μM, 1 μM, 2.5 μM, or 5 μM of AVI-CO-004 alone. Three days after the infection, a level of viral proliferation was identified by GFP expression using a fluorescence microscope (A of FIG. 6). Virus supernatant was collected and cell residues were removed; and HIV-1 P24 antigen ELISA assay was performed to identify a level of viral production (B of FIG. 6).
First, MT4 cells were inoculated at 1×10^5 cells into 48-well plates and infected with HIV-1 in an amount corresponding to 1 ng of p24. Together with the infection, the cells were treated with AVI-CO-004 at 0.5 μM and 1 μM in combination with 1 nM of AZT (zidovudine) and 0.5 nM of 3TC (lamivudine) fixed as basal therapeutic agents. Three days after the infection, a level of viral proliferation was identified by GFP expression using a fluorescence microscope (A of FIG. 7). Virus supernatant was collected and cell residues were removed; and HIV-1 P24 antigen ELISA assay was performed to identify a level of viral production (B of FIG. 7).
First, MT4 cells were inoculated at 1×10^5 cells into 48-well plates and infected with HIV-1 in an amount corresponding to 1 ng of p24. Together with the infection, the cells were treated with AVI-CO-004 at 0.5 μM, 1 μM, 2.5 μM, and 5 μM in combination with 0.25 μM of TFV and 0.2 μM of FTC fixed as basal therapeutic agents. Three days after the infection, a level of viral proliferation was identified by GFP expression using a fluorescence microscope (A of FIG. 8). Virus supernatant was collected and cell residues were removed; and HIV-1 P24 antigen ELISA assay was performed to identify a level of viral production (B of FIG. 8).

[3] = system: NL43-derived HIV-1 carrying the GFP gene; experiment: Reinfectivity of viral particles produced after treatment: healthy MT4 cells reinfected (2.5 ng p24), GFP-positive cells counted by FACS after 48 hours; conditions: for Decreased reinfectivity (%): alone, reinfection of MT4 cells, FACS
Procedure: In order to identify reinfectivity of viruses produced after treatment with AVI-CO-004 alone, healthy T cells inoculated at 1×10^5 cells into 48-well plates were infected with the same amount (2.5 ng in p24) of purified viral particles produced in infection assay in Example 2. After 48 hours, a level of reinfectivity of the viral particles was identified by GFP expression using a fluorescence microscope. For quantification, GFP-positive cells re-infected with the viruses were counted using a fluorescence activated cell sorter (FACS) and indicated (A of FIG. 9), and the results were graphically represented (B of FIG. 9).
In order to compare reinfectivity of the viruses produced after treatment with AVI-CO-004 alone and after combined treatment with AVI-CO-004/AZT/3TC or AVI-CO-004/TFV/FTC, the purified viral particles produced after the combined treatment in Example 2 and a control which had not been treated with an inhibitor were quantified at the same amount (2.5 ng of p24), and used to reinfect healthy T cells.
First, healthy MT4 cells were inoculated at 1×10^5 cells into 48-well plates and infected with the same amount (2.5 ng in p24) of purified viral particles produced in infection assay in Example 2. After 48 hours, a level of reinfectivity of the viruses was identified by GFP expression using a fluorescence microscope. For quantification, GFP-positive cells re-infected with the viruses were counted using a fluorescence activated cell sorter (FACS) and indicated, and the results were graphically represented (FIGS. 10 and 11).

`Nc1ccn([C@@H]2CS[C@H](CO)O2)c(=O)n1` [3TC, 2′-3′-dideoxy-3′-thiacytidine] was tested, and the “Actually measured virus inhibitory value (%)” value ([1]; amount used 1 nM) was 25%.

In the case of `O=C(O)CCN1C(=O)/C(=C/c2ccc(-c3ccc(Cl)cc3)o2)SC1=S` [AVI-CO-004, 3-{5-[5-(4-chloro-phenyl)-furan-2-ylmethylene]-4-oxo-2-thioxo-thiazolidin-3-yl}-propionic acid], the “Actually measured virus inhibitory value (%)” value ([1]; amount used 2.5 μM) was 12%, the “Actually measured virus inhibitory value (%)” value ([1]; amount used 5 μM) was 40% and the “antiviral effect (amount of viruses produced)” value ([1]; treatment alone at increasing concentrations, p<0.05) was “concentration-dependent antiviral effect”. The “Actually measured virus inhibitory value (%)” value ([2]; amount used 0.5 μM) was 14.4%, the “Actually measured virus inhibitory value (%)” value ([2]; amount used 1 μM) was 44% and the “Actually measured virus inhibitory value (%)” value ([2]; amount used 2.5 μM) was 61.2%. The “Actually measured virus inhibitory value (%)” value ([2]; amount used 5 μM) was 76.3%, the “reinfectivity of viruses produced after treatment, compared with a control” value ([3]; treatment alone, reinfection of healthy cells) was “significantly decreased reinfectivity” and the “Decreased reinfectivity (%)” value ([3]; viruses produced under 0.5 μM) was 35.8%. For the same molecule, the “Decreased reinfectivity (%)” value ([3]; viruses produced under 1 μM) was 65.3%, the “Decreased reinfectivity (%)” value ([3]; viruses produced under 2.5 μM) was 97.5% and the “Decreased reinfectivity (%)” value ([3]; viruses produced under 5 μM) was 97.5%.

`Cc1cn([C@H]2C[C@H](N=[N+]=[N-])[C@@H](CO)O2)c(=O)[nH]c1=O` [AZT, 3′-azido-3′-deoxythymidine] was tested, and the “Actually measured virus inhibitory value (%)” value ([1]; amount used 1 nM) was 9%.

`Nc1nc(=O)n([C@@H]2CS[C@H](CO)O2)cc1F` [FTC] was tested, and the “Actually measured virus inhibitory value (%)” value ([1]; amount used 5 nM) was 19%.

With `C[C@H](Cn1cnc2c(N)ncnc21)OCP(=O)(O)O` [TFV, tenofovir] the “Actually measured virus inhibitory value (%)” value ([1]; amount used 0.25 μM) was 30%.
